Values quoted from earlier work as cited in US20190282540A1, “TARGETED DRUG DELIVERY” (NOXOPHARM LIMITED, priority 2016, published 2019).

Experiments:
[1] = [14C] idronoxil given orally, target dose 20 mg/kg
[2] = system: wide range of cancer cell types; conditions: fold relative to genistein
[3] = in vivo, following dietary challenge

brain-to-blood ratio [3]	Structure (SMILES)	levels of isotope in the brain and spinal cord [1]	potency as an anti-cancer agent compared to genistein [2]	conjugation (intravenously administered, second-pass liver metabolism)	conversion into water-soluble conjugates (orally administered, gut mucosa transferase activity and first-pass liver metabolism)
–	Oc1ccc(C2=Cc3ccc(O)cc3OC2)cc1 [Idronoxil, 2H-1-Benzopyran-7-0,1,3-(4-hydroxyphenyl)]	below the limit of reliable measurement	about 10 ×	completely conjugated	completely converted into water-soluble conjugates
0.04	O=c1c(-c2ccc(O)cc2)coc2cc(O)cc(O)c12 [genistein]	–	–	–	–
